Where “and” joins values, the source holds several entries; their conditions need not be identical. Equal entries are not always repeated. Where two headings read alike, the source gives them in different places.
Columns and labels:
[1] = target: T1, dopamine re-uptake system (Rattus norvegicus, UniProt P23977); experiment: Inhibition of dopamine re-uptake in rat neostriatal synaptosome preparation; format: biochemical
T1 construct: (synaptosome preparation) was obtained form fresh rat neostriatal brain tissue; from tissue; host or cells: rat neostriatum, synaptosome preparation
Method: An in vitro nerve terminal preparation (synaptosome preparation) was prepared using fresh rat neostriatal tissue.
FIG. 19: Determination of IC50 Values for Inhibition of Dopamine Re-Uptake.
An in vitro nerve-terminal preparation (synaptosome preparation) was obtained form fresh rat neostriatal brain tissue. Transport by dopamine nerve-terminals was estimated by measuring the uptake of tritiated dopamine.

[2] = system: cultured rat mesencephalic cells; experiment: Medium change (glutamate receptor dependent) model of cell death: [3H]-dopamine uptake; conditions: for neuron protection by measurement of dopamine uptake (FIG. 15): glutamate receptor dependent model
Method: Preparations are then added to 10 ml Ecoscint (National Diagnostics) and counted in a scintillation spectrometer.
(§2) In these experiments, cells were plated and allowed to stabilize for several days.

[3] = system: cultured embryonic mesencephalic cells; experiment: Neuronal survival: [3H]dopamine uptake by cultured mesencephalic cells; format: cell-based, rat
Description: The amount of uptake by the cultured brain cells corresponds to axonal growth.

interleukin-2 production = experiment: Concanavalin A-induced interleukin-2 production by spleen cells of treated old rats; format: in vivo, rat; conditions: ip daily 60 days
Method: The present experiments utilized a rat model to examine the ability of R(−)DMS and S(+)DMS to restore immunological function. Rats were divided into the following experimental groups:
(§1) Rats were administered saline or test agent ip, daily for 60 days. They were then maintained for an additional “wash out” period of 10 days during which time no treatment was given. At the end of this time, animals were sacrificed and their spleens were removed. The spleen cells were then assayed for a variety of factors which are indicative of immune system function. Specifically, standard tests were employed to determine the following:
2) in vitro concanavalin A-induced production of interleukin-2;

γ-interferon production = γ-interferon production by concanavalin A-stimulated spleen cells of treated old rats; format: in vivo, rat; conditions: old rats, ip daily 60 days; 1.0 mg/kg (for DMS enantiomers)
Method: Rats were divided into the following experimental groups:
as §1
1) in vitro production of γ-interferon by concanavalin A-stimulated spleen cells;

MAO-A [4] = target: T2, MAO-A (Rattus norvegicus, UniProt P21396)
T2 sequence (P21396 1-526): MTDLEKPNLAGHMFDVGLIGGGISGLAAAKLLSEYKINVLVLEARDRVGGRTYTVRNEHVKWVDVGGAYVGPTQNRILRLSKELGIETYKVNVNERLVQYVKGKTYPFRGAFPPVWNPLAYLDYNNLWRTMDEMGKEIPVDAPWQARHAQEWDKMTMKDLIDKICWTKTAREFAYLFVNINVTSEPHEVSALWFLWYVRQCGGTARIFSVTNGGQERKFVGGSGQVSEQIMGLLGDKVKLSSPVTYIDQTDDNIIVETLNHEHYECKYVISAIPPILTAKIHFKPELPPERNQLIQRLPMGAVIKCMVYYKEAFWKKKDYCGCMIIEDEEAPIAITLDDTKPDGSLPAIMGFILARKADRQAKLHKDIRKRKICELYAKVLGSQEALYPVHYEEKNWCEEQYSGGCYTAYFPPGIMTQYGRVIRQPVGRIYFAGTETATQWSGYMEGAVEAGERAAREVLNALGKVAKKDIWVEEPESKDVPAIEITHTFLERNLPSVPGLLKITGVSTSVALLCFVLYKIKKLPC

[5] = system: cultured rat mesencephalic cells exposed to NMDA; experiment: NMDA model of cell death: TH immunochemistry; conditions: 50 μM, 100 μM NMDA exposure
Method: Rat mesencephalic cell cultures were exposed to 100 μM NMDA and incubated as described above in connection with FIG. 16.

[6] = system: cultured rat mesencephalic cells exposed to NMDA; experiment: NMDA model of cell death: [3H]-dopamine uptake; conditions: 50 μM, 100 μM NMDA exposure
[7] = system: cultured rat mesencephalic cells; experiment: Medium change (glutamate receptor dependent) model of cell death: TH positive cells
Method: as §2

[8] = system: TH positive cells in cultured E-14 embryonic mesencephalic cells
MAO-A [9] = target: T3, MAO-A (Cavia porcellus, UniProt H0UVA2); experiment: MAO-A inhibition in guinea pig hippocampal homogenates in vitro; format: biochemical; design: by human platelets and/or guinea pig hippocampal homogenates; from tissue; host or cells: guinea pig hippocampus homogenate
T3 sequence (H0UVA2 1-461): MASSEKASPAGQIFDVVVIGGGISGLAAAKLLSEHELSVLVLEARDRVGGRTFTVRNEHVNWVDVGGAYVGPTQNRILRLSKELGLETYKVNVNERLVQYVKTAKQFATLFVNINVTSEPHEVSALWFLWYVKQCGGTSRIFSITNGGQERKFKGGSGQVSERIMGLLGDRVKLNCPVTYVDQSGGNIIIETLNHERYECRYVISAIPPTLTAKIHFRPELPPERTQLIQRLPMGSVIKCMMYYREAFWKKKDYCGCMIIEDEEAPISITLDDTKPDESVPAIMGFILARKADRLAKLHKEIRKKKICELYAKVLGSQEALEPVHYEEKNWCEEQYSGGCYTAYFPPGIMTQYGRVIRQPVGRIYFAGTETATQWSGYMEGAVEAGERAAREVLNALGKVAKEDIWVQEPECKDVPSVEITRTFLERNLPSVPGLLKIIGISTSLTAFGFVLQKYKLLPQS
Description: Human platelet MAO is comprised exclusively of the type-B isoform of the enzyme. […] The present study also examined the two enantiomers of DMS for inhibitory activity with respect to the MAO-A and MAO-B in guinea pig hippocampal tissue. Guinea pig brain tissue is an excellent animal model for studying brain dopamine metabolism, the enzyme kinetics of the multiple forms of MAO and the inhibitory properties of novel agents that interact with these enzymes. The multiple forms of MAO in this animal species show similar kinetic properties to those found in human brain tissue. Finally, the test agents were administered to guinea pigs and the extent to which they might act as inhibitors of brain MAO in vivo was assessed.
In vitro: The test system utilized the in vitro conversion of specific substrates of MAO-A (^14C-serotonin) and MAO-B (^14C-phenylethylamine) by human platelets and/or guinea pig hippocampal homogenates. […] A percent inhibition was calculated from these values.

[10] = 1.0 mg/kg (for DMS enantiomers)
[11] = 50 μM, medium change model, listed as Deprenyl

T1 sequence (P23977 whole entry): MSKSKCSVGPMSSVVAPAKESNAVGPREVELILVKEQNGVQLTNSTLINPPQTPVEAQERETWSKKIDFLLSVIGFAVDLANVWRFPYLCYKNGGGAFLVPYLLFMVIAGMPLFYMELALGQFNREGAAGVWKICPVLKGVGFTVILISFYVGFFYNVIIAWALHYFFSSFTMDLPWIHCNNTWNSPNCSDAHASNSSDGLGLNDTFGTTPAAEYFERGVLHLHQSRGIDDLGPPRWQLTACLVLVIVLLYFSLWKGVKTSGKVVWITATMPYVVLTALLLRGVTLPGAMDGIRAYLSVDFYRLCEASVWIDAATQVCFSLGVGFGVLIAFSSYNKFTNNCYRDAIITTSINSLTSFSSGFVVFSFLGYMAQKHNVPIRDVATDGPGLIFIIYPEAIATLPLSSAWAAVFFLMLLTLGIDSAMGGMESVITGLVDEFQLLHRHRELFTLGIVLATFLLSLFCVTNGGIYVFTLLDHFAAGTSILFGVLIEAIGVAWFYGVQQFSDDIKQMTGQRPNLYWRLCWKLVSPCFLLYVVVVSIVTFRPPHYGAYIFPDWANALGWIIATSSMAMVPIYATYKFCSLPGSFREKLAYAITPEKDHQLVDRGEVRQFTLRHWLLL

NCCc1ccc(O)c(O)c1 [Dopamine, dopamine, reference compound]
3H-Dopamine uptake, % Reduction x ± SEM ([1]; 1 μM): 52.0 ± 4.9%
3H-Dopamine uptake, % Reduction x ± SEM ([1]; 10 μM): 80.9 ± 0.4%

C[C@]12N[C@H](Cc3ccccc31)c1ccccc12 [MK-801, reference compound]
neuron protection by measurement of dopamine uptake (FIG. 15) ([2]; 10 μM): protection was also obtained

C#CCN(C)Cc1ccccc1 [Pargyline, pargyline, reference compound]
neuron protection by measurement of dopamine uptake (FIG. 15) ([2]; at the concentrations used (0.5, 5 and 50 μM)): did not appear to offer any protection

C#CCN(C)[C@H](C)Cc1ccccc1 [Selegiline, R-(−)-N-methyl-N-(prop-2-ynyl)-2-aminophenylpropane, reference compound]
3H-Dopamine Uptake, % Cont ([3]; 0.5 μM): 120.6%
3H-Dopamine Uptake, Mean ([3]; 0.5 μM): 14452 ± 212
3H-Dopamine Uptake, % Cont ([3]; 5 μM): 137.5%
3H-Dopamine Uptake, Mean ([3]; 5 μM): 16468 ± 576
3H-Dopamine Uptake, % Cont ([3]; 50 μM): 275.5%
3H-Dopamine Uptake, Mean ([3]; 50 μM): 33018 ± 1317
3H-Dopamine uptake, % Reduction x ± SEM ([1]; 1 μM): 13.9 ± 4.7%
3H-Dopamine uptake, % Reduction x ± SEM ([1]; 10 μM): 16.3 ± 3.8%
3H-Dopamine uptake, % Reduction x ± SEM ([1]; 100 μM): 7.0 ± 3.6%
3H-Dopamine uptake, % Reduction x ± SEM ([1]; 100 μM (last row of each agent)): 59.8 ± 1.0%
IL-2 % control (interleukin-2 production; [10]): 376%
IL-2 U/ml mean (interleukin-2 production; [10]): 73.78 U/ml
IL-2 U/ml mean (interleukin-2 production; […] (for R(−)DMS by group order)): 109.6 U/ml
IFN-γ % control (γ-interferon production): 550%
IFN-γ U/ml mean (γ-interferon production): 1934 U/ml
inhibition (MAO-A [4]; 0.3 µM): 9.75%
inhibition (MAO-A [4]; 1 μM): 32.5%
inhibition (MAO-A [4]; 3 µM): 65.5%
inhibition (MAO-A [4]; 10 μM): 97.8%
TH Immunochemistry, % control, Mean [5]: 234.3%
TH Immunochemistry, cells/cm^2, Mean [5]: 220.63 cells/cm^2
TH Immunochemistry, % control, individual cultures ([5]; listed as Deprenyl): 244.2% and 305.3% and 199.1% and 188.5%
TH Immunochemistry, cells/cm^2, individual cultures ([5]; listed as Deprenyl): 230.0 cells/cm^2 and 287.5 cells/cm^2 and 187.5 cells/cm^2 and 177.5 cells/cm^2
Dopamine uptake, % control, Mean [6]: 257.4%
Dopamine uptake, counts/min, Mean [6]: 17393.8 counts/min
Dopamine uptake, % control, individual cultures ([6]; listed as Deprenyl): 228.1% and 273.5% and 251.0% and 259.8% and 274.9%
Dopamine uptake, counts/min, individual cultures ([6]; listed as Deprenyl): 15410 counts/min and 18479 counts/min and 16958 counts/min and 17550 counts/min and 18572 counts/min
TH Immunochemistry, % control, Mean ([7]; 50 μM, medium change model): 130.6%
TH Immunochemistry, cells/cm^2, Mean ([7]; 50 μM, medium change model): 344.17 cells/cm^2
TH Immunochemistry, % control, individual cultures [7, 11]: 146.0% and 124.2% and 121.4%
TH Immunochemistry, cells/cm^2, individual cultures [7, 11]: 385.0 cells/cm^2 and 327.5 cells/cm^2 and 320.0 cells/cm^2
survival of dopaminergic neurons (FIGS. 11 and 12) ([7]; 0.5, 5.0 or 50 μM, 4 days of daily medium changes, TH staining and dopamine uptake): promotes the survival of dopaminergic neurons
neuron protection by measurement of dopamine uptake (FIG. 15) ([2]; 50 μM): neuron protection
Dopamine uptake, % control, Mean ([2]; 50 μM, medium change model): 170.1%
Dopamine uptake, counts/min, Mean ([2]; 50 μM, medium change model): 35714 counts/min
Dopamine uptake, % control, individual cultures [2, 11]: 181.2% and 162.6% and 175.3% and 161.3%
Dopamine uptake, counts/min, individual cultures [2, 11]: 38053 counts/min and 34130 counts/min and 36810 counts/min and 33863 counts/min
Survival of TH positive cells, % cont. ([8]; 0.5 μM): 185.81%
Survival of TH positive cells, Mean cells/cm^2 ([8]; 0.5 μM): 201.70 ± 25.01 cells/cm^2
Survival of TH positive cells, % cont. ([8]; 5 μM): 218.33%
Survival of TH positive cells, Mean cells/cm^2 ([8]; 5 μM): 237.00 ± 12.59 cells/cm^2
Survival of TH positive cells, % cont. ([8]; 50 μM): 269.25%
Survival of TH positive cells, Mean cells/cm^2 ([8]; 50 μM): 292.28 ± 17.41 cells/cm^2
IC50 (MAO-A [9]): 2.5 µM
inhibition at 0.3 µM (MAO-A [9]; 300 nM, guinea pig hippocampus, read-out: MAO-A % Inhibition x = SEM): 11.9 ± 2.4%
inhibition at 1 µM (MAO-A [9]; 1 μM, guinea pig hippocampus, read-out: MAO-A % Inhibition x = SEM): 22.1 ± 1.2%
inhibition at 3 µM (MAO-A [9]; 3 μM, guinea pig hippocampus, read-out: MAO-A % Inhibition x = SEM): 53.5 ± 2.7%
reduction in potency compared to selegiline (value in parentheses) (MAO-A [9]; MAO-A IC50, guinea pig hippocampal cortex): 1

C#CCN(C)CCCOc1ccc(Cl)cc1Cl [clorgyline, reference compound]
neuron protection by measurement of dopamine uptake (FIG. 15) ([2]; 50 μM): protected

From patent US6375979B2 (Somerset Pharmaceuticals, Inc., priority 1995, dated 2002)
